In patent US4988687A, “Cephalosporin derivatives, and antibacterial agents” (priority 1986, dated 1991):
≈ marks a conversion by molar mass, not a printed value. Like-named read-outs stand apart in the source and are kept apart here.

What was measured:
Ps. maltophilia GN 12873 = assay: agar plate dilution method, MIC against Ps. maltophilia GN 12873; type: cell-based, Pseudomonas maltophilia; conditions: Stenotrophomonas maltophilia, read-out: Minimum Inhibitory Concentration (MIC)
Description: (§1) The in vitro antibacterial activities of the compounds of the present invention against various microorganisms, were measured by the following agar plate dilution method. One platinum loopfull of each test microorganism incubated overnight in Mueller Hinton broth, was inoculated to Mueller Hinton agar (inoculum size: 10^6 CFU/ml) Such culture media containing various antibiotics in various concentrations were prepared After incubation at 37° C. for 16 hours, the minimum inhibitory concentrations (MIC: μg/ml) were measured. As comparative compounds, cefotaxime, oeftazidime and the compounds disclosed in Example 2 of Japanese Unexamined Patent Publication No. 215690/1985 e.g. sodium 7-[2-(2-aminothiazol-4-yl)-2-ethoxyiminoacetamido]-3-(1-carboxylatemethylpyridinio-4-yl)thiomethyl-3-cephem-4-carboxylate (hereinafter referred to simply as "Reference Example A") were employed.

Ps. aeruginosa AK 109 = assay: agar plate dilution method, MIC against Ps. aeruginosa AK 109; type: cell-based; conditions: Pseudomonas aeruginosa, AK109, 16 h, read-out: Minimum Inhibitory Concentration (MIC)
Description: as §1

K. oxytoca GN10650 = assay: agar plate dilution method, MIC against K. oxytoca GN10650; type: cell-based; conditions: Klebsiella oxytoca, read-out: Minimum Inhibitory Concentration (MIC)
Description: as §1

E. coli CSH2 (RK1) = assay: agar plate dilution method, MIC against E. coli CSH2 (RK1); type: cell-based; conditions: Escherichia coli, 16 h, read-out: Minimum Inhibitory Concentration (MIC)
Description: as §1

K. pneumoniae No. 42 = assay: agar plate dilution method, MIC against K. pneumoniae No. 42; type: cell-based; conditions: Klebsiella pneumoniae, read-out: Minimum Inhibitory Concentration (MIC)
Description: as §1

Ps. aeruginosa AKR17 = assay: agar plate dilution method, MIC against Ps. aeruginosa AKR17; type: cell-based; conditions: Pseudomonas aeruginosa; Ps. aeruginosa AKR17; 10^6 CFU/ml, 37° C., 16 hours; read-out: Minimum Inhibitory Concentration (MIC)
Description: as §1

A. calcoaceticus No. 4 = assay: agar plate dilution method, MIC against A. calcoaceticus No. 4; type: cell-based; conditions: Acinetobacter calcoaceticus, read-out: Minimum Inhibitory Concentration (MIC)
Description: as §1

S. marcescens No. 16-2 = assay: agar plate dilution method, MIC against S. marcescens No. 16-2; type: cell-based; conditions: Serratia marcescens, NO.162, 16 h, read-out: Minimum Inhibitory Concentration (MIC)
Description: as §1

P. vulgaris No. 33 = assay: agar plate dilution method, MIC against P. vulgaris No. 33; type: cell-based; conditions: Proteus vulgaris, read-out: Minimum Inhibitory Concentration (MIC)
Description: as §1

M. morganii GN5407 = assay: agar plate dilution method, MIC against M. morganii GN5407; type: cell-based; conditions: Morganella morganii, read-out: Minimum Inhibitory Concentration (MIC)
Description: as §1

C. freundii GN346/16 = assay: agar plate dilution method, MIC against C. freundii GN346/16; type: cell-based; conditions: Citrobacter freundii, GN346, 16 h, read-out: Minimum Inhibitory Concentration (MIC)
Description: as §1

E. cloacae 963 = assay: agar plate dilution method, MIC against E. cloacae 963; type: cell-based; conditions: Enterobacter cloacae, 963, 16 h, read-out: Minimum Inhibitory Concentration (MIC)
Description: as §1

M. luteus ATCC9341 = assay: agar plate dilution method, MIC against M. luteus ATCC9341; type: cell-based; conditions: Micrococcus luteus, ATCC9341, 16 h, read-out: Minimum Inhibitory Concentration (MIC)
Description: as §1

Ps. aeruginosa IFO3445 = assay: agar plate dilution method, MIC against Ps. aeruginosa IFO3445; type: cell-based; conditions: Pseudomonas aeruginosa, read-out: Minimum Inhibitory Concentration (MIC)
Description: as §1

K. pneumoniae PCI-602 = assay: agar plate dilution method, MIC against K. pneumoniae PCI-602; type: cell-based; conditions: Klebsiella pneumoniae, PCI602, 16 h, read-out: Minimum Inhibitory Concentration (MIC)
Description: as §1

Ps. cepacia 23 = assay: agar plate dilution method, MIC against Ps. cepacia 23; type: cell-based, Pseudomonas cepacia; conditions: read-out: Minimum Inhibitory Concentration (MIC)
Description: as §1

S. aureus BB5703 = assay: agar plate dilution method, MIC against S. aureus BB5703; type: cell-based; conditions: Staphylococcus aureus, read-out: Minimum Inhibitory Concentration (MIC)
Description: as §1

S. marcescens IAM 1184 = assay: agar plate dilution method, MIC against S. marcescens IAM 1184; type: cell-based; conditions: Serratia marcescens, read-out: Minimum Inhibitory Concentration (MIC)
Description: as §1

P. vulgaris HX-19 = assay: agar plate dilution method, MIC against P. vulgaris HX-19; type: cell-based; conditions: Proteus vulgaris, read-out: Minimum Inhibitory Concentration (MIC)
Description: as §1

S. aureus 209P NIHJ-JC1 = assay: agar plate dilution method, MIC against S. aureus 209P NIHJ-JC1; type: cell-based; conditions: Staphylococcus aureus, 16 h, read-out: Minimum Inhibitory Concentration (MIC)
Description: as §1

C. freundii GN346 = assay: agar plate dilution method, MIC against C. freundii GN346; type: cell-based; conditions: Citrobacter freundii, read-out: Minimum Inhibitory Concentration (MIC)
Description: as §1

S. epidermidis IAM12012 = assay: agar plate dilution method, MIC against S. epidermidis IAM12012; type: cell-based; conditions: Staphylococcus epidermidis, IAM12012, 16 h, read-out: Minimum Inhibitory Concentration (MIC)
Description: as §1

E. coli GN5482 = assay: agar plate dilution method, MIC against E. coli GN5482; type: cell-based; conditions: Escherichia coli, read-out: Minimum Inhibitory Concentration (MIC)
Description: as §1

E. coli NIHJ JC2 = assay: agar plate dilution method, MIC against E. coli NIHJ JC2; type: cell-based; conditions: Escherichia coli, NIHJJC2, 16 h, read-out: Minimum Inhibitory Concentration (MIC)
Description: as §1

S. aureus JS1 = assay: agar plate dilution method, MIC against S. aureus JS1; type: cell-based; conditions: Staphylococcus aureus, read-out: Minimum Inhibitory Concentration (MIC)
Description: as §1

E. coli CSH(RE45) = assay: agar plate dilution method, MIC against E. coli CSH(RE45); type: cell-based; conditions: Escherichia coli, 16 h, read-out: Minimum Inhibitory Concentration (MIC)
Description: as §1

E. cloacae Nek 39 = assay: agar plate dilution method, MIC against E. cloacae Nek 39; type: cell-based; conditions: Enterobacter cloacae, read-out: Minimum Inhibitory Concentration (MIC)
Description: as §1

In the case of Nc1nc(/C(=N/OC(C(=O)O)c2ccccc2)C(=O)NC2C(=O)N3C(C(=O)[O-])=C(CSc4cc[n+](CC(=O)O)cc4)CSC23)cs1 (stereo not drawn) [Example 3, disodium 7-[2-(2-aminothiazol-4-yl)-2-(α-carboxylatebenzyloxyimino)acetamide]-3-(1-caboxylatemethylpyridinio-4-yl)thiomethyl-3-cephem-4-carboxylate (syn-isomer)], the MIC (Ps. maltophilia GN 12873; GN12873, Ps. maltophilia GN 12873 (lactamase-producing strain), 10^6 CFU/ml, 37° C., 16 hours) is reported as > 100 mg/L, the MIC (Ps. aeruginosa AK 109) is reported as 6.25 mg/L and the MIC (K. oxytoca GN10650; K. oxytoca GN10650 (lactamase-producing strain), 10^6 CFU/ml, 37° C., 16 hours) is reported as 0.78 mg/L. The MIC (E. coli CSH2 (RK1)) was 0.78 mg/L, the MIC (K. pneumoniae No. 42; K. pneumoniae No. 42 (lactamase-producing strain), 10^6 CFU/ml, 37° C., 16 hours) was 1.56 mg/L and the MIC (Ps. aeruginosa AKR17) was > 100 mg/L. It also gave an MIC (A. calcoaceticus No. 4; A. calcoaceticus No. 4, 10^6 CFU/ml, 37° C., 16 hours) of 50 mg/L, an MIC (S. marcescens No. 16-2) of 6.25 mg/L and an MIC (P. vulgaris No. 33; P. vulgaris No. 33 (lactamase-producing strain), 10^6 CFU/ml, 37° C., 16 hours) of 0.1 mg/L. For the same molecule, the MIC (M. morganii GN5407; M. morganii GN5407 (lactamase-producing strain), 10^6 CFU/ml, 37° C., 16 hours) was 0.78 mg/L, the MIC (C. freundii GN346/16) was 1.56 mg/L and the MIC (E. cloacae 963) was 1.56 mg/L. For the same molecule, the MIC (M. luteus ATCC9341) was 3.12 mg/L, the MIC (Ps. aeruginosa IFO3445; IFO3445, 16 h) was 3.12 mg/L and the MIC (K. pneumoniae PCI-602) was < 0.006 mg/L. It also gave an MIC (Ps. cepacia 23; Burkholderia cepacia, 23, 16 h) of 3.12 mg/L, an MIC (S. aureus BB5703; S. aureus BB5703, 10^6 CFU/ml, 37° C., 16 hours) of 25 mg/L and an MIC (S. marcescens IAM 1184; IAM1184, S. marcescens IAM 1184, 10^6 CFU/ml, 37° C., 16 hours) of 0.39 mg/L. The MIC (P. vulgaris HX-19; HX19, P. vulgaris HX-19, 10^6 CFU/ml, 37° C., 16 hours) was 0.0125 mg/L, the MIC (S. aureus 209P NIHJ-JC1) was 12.5 mg/L and the MIC (C. freundii GN346; C. freundii GN346 (lactamase-producing strain), 10^6 CFU/ml, 37° C., 16 hours) was 100 mg/L. For the same molecule, the MIC (S. epidermidis IAM12012) was 6.25 mg/L, the MIC (E. coli GN5482; E. coli GN5482 (lactamase-producing strain), 10^6 CFU/ml, 37° C., 16 hours) was 0.78 mg/L and the MIC (E. coli NIHJ JC2) was 1.56 mg/L. For the same molecule, the MIC (S. aureus JS1; S. aureus JS1 (methicilline resistant; lactamase-producing strain), 10^6 CFU/ml, 37° C., 16 hours) was 50 mg/L, the MIC (E. coli CSH(RE45)) was 0.78 mg/L and the MIC (E. cloacae Nek 39; NEK39, E. cloacae Nek 39 (lactamase-producing strain), 10^6 CFU/ml, 37° C., 16 hours) was 6.25 mg/L.
CC(C)(O/N=C(\C(=O)N[C@@H]1C(=O)N2C(C(=O)[O-])=C(C[n+]3ccccc3)CS[C@H]12)c1csc(N)n1)C(=O)O [Ceftazidime, ceftazidime, reference compound] showed an MIC (Ps. maltophilia GN 12873; GN12873, 16 h) of 100 mg/L (≈ 183 µM), an MIC (Ps. aeruginosa AK 109) of 1.56 mg/L (≈ 2.85 µM) and an MIC (K. oxytoca GN10650; GN10650, 16 h) of 0.2 mg/L (≈ 0.366 µM). The MIC (E. coli CSH2 (RK1)) was 0.1 mg/L (≈ 0.183 µM), the MIC (K. pneumoniae No. 42; NO.42, 16 h) was 0.39 mg/L (≈ 0.714 µM) and the MIC (Ps. aeruginosa AKR17) was > 100 mg/L. The MIC (A. calcoaceticus No. 4; NO.4, 16 h) was 6.25 mg/L (≈ 11.4 µM), the MIC (S. marcescens No. 16-2) was 1.56 mg/L (≈ 2.85 µM) and the MIC (P. vulgaris No. 33; NO.33, 16 h) was 0.05 mg/L (≈ 0.0915 µM). For the same molecule, the MIC (M. morganii GN5407; GN5407, 16 h) was 0.1 mg/L (≈ 0.183 µM), the MIC (C. freundii GN346/16) was 0.2 mg/L (≈ 0.366 µM) and the MIC (E. cloacae 963) was 0.2 mg/L (≈ 0.366 µM). For the same molecule, the MIC (M. luteus ATCC9341) was 0.78 mg/L (≈ 1.43 µM), the MIC (Ps. aeruginosa IFO3445; Ps. aeruginosa IFO3445, 10^6 CFU/ml, 37° C., 16 hours) was 0.39 mg/L (≈ 0.714 µM) and the MIC (K. pneumoniae PCI-602) was < 0.006 mg/L. For the same molecule, the MIC (Ps. cepacia 23; Burkholderia cepacia, Ps. cepacia 23, 10^6 CFU/ml, 37° C., 16 hours) was 0.78 mg/L (≈ 1.43 µM), the MIC (S. aureus BB5703; BB5703, 16 h) was 12.5 mg/L (≈ 22.9 µM) and the MIC (S. marcescens IAM 1184; IAM1184, 16 h) was 0.025 mg/L (≈ 0.0457 µM). It also gave an MIC (P. vulgaris HX-19; HX19, 16 h) of 0.025 mg/L (≈ 0.0457 µM), an MIC (S. aureus 209P NIHJ-JC1) of 6.25 mg/L (≈ 11.4 µM) and an MIC (C. freundii GN346; GN346, 16 h) of 25 mg/L (≈ 45.7 µM). For the same molecule, the MIC (S. epidermidis IAM12012) was 3.12 mg/L (≈ 5.71 µM), the MIC (E. coli GN5482; GN5482, 16 h) was 1.56 mg/L (≈ 2.85 µM) and the MIC (E. coli NIHJ JC2) was 0.2 mg/L (≈ 0.366 µM). The MIC (S. aureus JS1; JS1, 16 h) was 25 mg/L (≈ 45.7 µM), the MIC (E. coli CSH(RE45)) was 0.1 mg/L (≈ 0.183 µM) and the MIC (E. cloacae Nek 39; NEK39, 16 h) was 3.12 mg/L (≈ 5.71 µM).
